Data reported in ChEMBL document CHEMBL3886468, “Cyclohexylamine derivatives having β2 adrenergic agonist and M3 muscarinic antagonist activities” (2016).

Molecular target: Muscarinic acetylcholine receptor M3 (Homo sapiens, UniProt P20309)
Assay: Muscarinic Receptor Binding Assay: The study of binding to human muscarinic M1, M2, M3, M4 and M5 receptors was performed using commercial membranes (Perkin Elmer) prepared from CHO-K1 cells. Radioligand binding experiments were conducted in 96 polypropylene well plates in a total volume of 200 ul. All reagents were dissolved in assay binding buffer (PBS with calcium and magnesium, SIGMA), except compounds that were dissolved in DMSO 100%. Non-specific binding (NSB) was measured in the presence of 1 uM atropine. [3H]-NMS was used as the radioligand at a concentration of 1 nM for M2, M3 and M5 and 0.3 nM for M1 and M4. [3H]-NMS and antagonists were incubated with membranes that express human muscarinic receptors M1, M2, M3, M4 and M5 at concentrations of 8.1, 10, 4.9, 4.5 and 4.9 ug/well, respectively. After an incubation period of two hours with gentle shaking, 150 ul of the reaction mix were transferred to 96 GF/C filter plates (Millipore), previously treated with wash buffer.
Type: cell-based

Chain of Muscarinic acetylcholine receptor M3 (P20309 whole entry): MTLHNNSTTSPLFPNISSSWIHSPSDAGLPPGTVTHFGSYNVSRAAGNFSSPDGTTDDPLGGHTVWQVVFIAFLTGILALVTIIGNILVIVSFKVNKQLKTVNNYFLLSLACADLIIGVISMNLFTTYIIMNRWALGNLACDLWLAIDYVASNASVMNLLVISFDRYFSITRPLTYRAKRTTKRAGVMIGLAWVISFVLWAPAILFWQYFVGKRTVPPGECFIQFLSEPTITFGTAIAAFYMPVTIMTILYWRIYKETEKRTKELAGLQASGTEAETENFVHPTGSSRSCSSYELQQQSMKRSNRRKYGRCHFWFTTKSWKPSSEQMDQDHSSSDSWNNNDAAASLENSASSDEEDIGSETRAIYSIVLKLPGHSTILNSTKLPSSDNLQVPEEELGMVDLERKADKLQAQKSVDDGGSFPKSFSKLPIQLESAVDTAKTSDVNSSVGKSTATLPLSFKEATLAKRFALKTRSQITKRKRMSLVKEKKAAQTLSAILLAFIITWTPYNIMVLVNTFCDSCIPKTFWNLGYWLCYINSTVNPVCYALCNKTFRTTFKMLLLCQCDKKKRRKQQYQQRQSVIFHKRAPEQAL

For `CN(CCCn1nnc2cc(CNC[C@H](O)c3ccc(O)c4c3OCC(=O)N4)ccc21)[C@H]1CC[C@H](OC(=O)[C@](O)(c2cccs2)C2CCCC2)CC1`, which IC50 is on record?
Its IC50 is 0.4 nM.
